Measurements: patent publication US11547683B2, “Therapeutic compounds, formulations, and uses thereof” (Tvardi Therapeutics, Inc., priority 2020, dated 2023)

Experiment: Studies on oxidation of the compound of Formula (I)
Format: physicochemical
Procedure: Stability was analyzed using a variety of antioxidants. A bulk formulation containing Kolliphor® RH 40, PEG600, Polysorbate 80, Labrasol®, and Transcutol® HP (45:15:10:20:10 by weight) was prepared with a compound of Formula (I) concentration of 60 mg/g. Antioxidants, including Vitamin E (0.05 wt %), ascorbyl palmitate (0.05 wt %), butylated hydroxytoluene (0.005 wt %), and triethyl citrate (0.7 wt %) were dissolved/dispersed in the bulk formulation, respectively. The resulting samples were placed at room temperature in glass vials and protected from light. The samples were monitored for purity by HPLC at 0, 3, and 8 weeks.

susceptibility to oxidation: susceptible to oxidation
Structure (SMILES): COc1ccc(S(=O)(=O)Nc2cc(-c3c(O)ccc4ccccc34)c(O)c3ccccc23)cc1 [Compound of Formula (I)]
